This note sets out measurements from patent publication US20220168206A1, “ACTIVE AGENT FOR USE IN HAIR GROWTH REGULATION” (MONASTERIUM LABORATORY SKIN & HAIR RESEARCH SOLUTIONS GMBH, priority 2019, published 2022).

The structures appear in SMILES notation.

Test [1] concerns TAS2R4 in anagen hair follicles. Put plainly: Inactivation of TAS2R4 with BCML in cultured hair follicles. Format: cell-based, human. How it is done: For analyzing the effect of inactivating TAS2R4, by the inverse agonist Nα,Nα-bis(carboxymethyl)-l-lysine (BCML), hair follicles were cultured in WEM medium supplemented with 2 mM L-glutamine, 10 ng/mL hydrocortisone, 10 μg/mL insulin and 1% penicillin/streptomycin mix (WCM medium), and treated either with 120 μM BCML (Sigma-Aldrich, cat. 14580) diluted in WCM or vehicle (WCM medium) according to the following procedure:
(§1) Day 0: Isolation of anagen hair follicles
Day 1: Change media, application of the substance corresponding to experimental groups (control group: WCM, experimental group: 120 μM BCML)
Day 7: Collection and freezing of hair follicles for analyses

Test [2] shares this test system. In words: Activation of TAS2R4 with Stevioside in cultured hair follicles. The class given is cell-based, human. How it is done:
To determine the effect of activating TAS2R4 by the agonist Stevioside, anagen hair follicles were cultured in WEM medium supplemented with 2 mM L-glutamine, 10 ng/mL hydrocortisone, 10 μg/mL insulin and 1% penicillin/streptomycin mix (WCM medium), and treated either with 200 μM Stevioside (Sigma-Aldrich, cat. 50956) diluted in DMSO or vehicle (0.2% DMSO in WCM medium) according to the following procedure: Day 0: Isolation of anagen hair follicles Day 1: Change media, application of the substance corresponding to experimental groups (control group: 0.2% DMSO, experimental group: 200 μM Stevioside) Day 2: Rest Day 3: Change media Day 4: Rest Day 5: Change media Day 6: Rest Day 7: Collection and freezing of hair follicles for analyses

For test [3] the test system is unchanged. In words: Activation of TAS2R4 with Rubusoside in cultured hair follicles. The class given is cell-based, human. How it is done:
For analyzing the effect of activating TAS2R4 by the agonist Rubusoside, hair follicles were cultured in WEM medium supplemented with 2 mM L-glutamine, 10 ng/mL hydrocortisone, 10 μg/mL insulin and 1% penicillin/streptomycin mix (WCM medium), and treated either with 50 μM Rubusoside (Sigma-Aldrich, cat. 62933) diluted in DMSO or vehicle (0.05% DMSO in WCM medium) according to the following procedure:
as §1
Day 1: Change media, application of the substance corresponding to experimental groups (control group: 0.05% DMSO, experimental group: 50 μM Rubusoside)
(§2) Day 6: Collection and freezing of hair follicles for analyses

In test [4] the test system is TAS2R4 in human anagen hair follicles. Put plainly: Activation of TAS2R4 with Rebaudioside A in cultured hair follicles. Format: cell-based. The method, then:
For analyzing the effect of activating TAS2R4 by the agonist Rebaudioside A, human anagen hair follicles from 2 donors were cultured in WEM medium supplemented with 2 mM L-glutamine, 10 ng/mL hydrocortisone, 10 μg/mL insulin and 1% penicillin/streptomycin mix (WCM medium), and treated either with 200 μM Rebaudioside A (Sigma-Aldrich, cat. 01432) diluted in DMSO or vehicle (0.5% DMSO in WCM medium) according to the following procedure:
as §1
Day 1: Change WCM media, application of the substance corresponding to experimental groups (control group: 0.5% DMSO, experimental group: 200 μM Rebaudioside A)
as §2

Setting [5] is: 120 μM BCML vs vehicle (WCM), collection day 7.
Where [6] appears, read: 200 μM Stevioside vs 0.2% DMSO, collection day 7.
[7] abbreviates: 200 μM Rebaudioside A vs 0.5% DMSO, collection day 6.

For `NCCCC[C@@H](C(=O)O)N(CC(=O)O)CC(=O)O` [BCML, Nα,Nα-bis(carboxymethyl)-l-lysine], in test [1] (setting [5]), the apoptosis result is “does not affect”, the “hair matrix keratinocyte proliferation” value is listed as “increases”, the pigmentation result is recorded as “increases” and the “proportion of hair follicles in anagen stage” value is recorded as “increases”. In addition, the hair growth entry in test [1] (summary statement, anagen hair follicles, BCML) is “hair growth promotion”.
Take `C=C1C[C@@]23CC[C@H]4[C@@](C)(CCC[C@@]4(C)C(=O)O[C@@H]4O[C@H](CO)[C@@H](O)[C@H](O)[C@H]4O)[C@@H]2CC[C@]1(O[C@@H]1O[C@H](CO)[C@@H](O)[C@H](O)[C@H]1O[C@@H]1O[C@H](CO)[C@@H](O)[C@H](O)[C@H]1O)C3` [Stevioside]: in test [2] (setting [6]), the apoptosis result was “does not affect”, the “hair matrix keratinocyte proliferation” value is on record as “decreases” and the “proportion of hair follicles in catagen stage” value is reported as “increases”. In addition, the hair growth result in test [2] (summary statement, Stevioside) was “hair growth inhibition”.
On to `C=C1C[C@@]23CC[C@H]4[C@@](C)(CCC[C@@]4(C)C(=O)O[C@@H]4O[C@H](CO)[C@@H](O)[C@H](O)[C@H]4O)[C@@H]2CC[C@]1(O[C@@H]1O[C@H](CO)[C@@H](O)[C@H](O)[C@H]1O)C3` [Rubusoside], for which the “proportion of human hair follicles in catagen stage” value in test [3] (50 μM Rubusoside vs 0.05% DMSO, collection day 6) is recorded as “increases”. The hair growth entry in test [3] (summary statement, Rubusoside) was “hair growth inhibition”.
On to `C=C1C[C@@]23CC[C@H]4[C@@](C)(CCC[C@@]4(C)C(=O)O[C@@H]4O[C@H](CO)[C@@H](O)[C@H](O)[C@H]4O)[C@@H]2CC[C@]1(O[C@@H]1O[C@H](CO)[C@@H](O)[C@H](O[C@@H]2O[C@H](CO)[C@@H](O)[C@H](O)[C@H]2O)[C@H]1O[C@@H]1O[C@H](CO)[C@@H](O)[C@H](O)[C@H]1O)C3` [Rebaudioside A], for which the “proportion of hair follicles in catagen stage” value in test [4] (200 μM Rebaudioside A vs 0.5% DMSO, 2 donors, collection day 6) is on record as “increases”. Besides, in test [4] (setting [7]), the apoptosis entry was “increases”, the “hair matrix keratinocyte proliferation” value is listed as “decreases” and the pigmentation result is on record as “hypopigmentation”. The hair growth entry in test [4] (summary statement, Rebaudioside A) is listed as “hair growth inhibition”.
